Data taken from PubChem BioAssay (NCI).
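Where inhibition never reached the appropriate level, the endpoint shown equals the highest concentration tested. Otherwise, values were interpolated linearly from a five-concentration, 48-hour dose response in 96-well plates. Here, GI50 denotes the concentration required for 50% inhibition of growth. The concentration for full growth arrest is given as TGI.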

Columns and labels:
Experiment in all cases: NCI-60 cell line screen, 48 h
SNB-19 CNS = tested on: SNB-19 CNS
U251 CNS = tested on: U251 CNS
SW-620 colon = tested on: SW-620 colon
UACC-257 melanoma = tested on: UACC-257 melanoma
ACHN renal = tested on: ACHN renal
OVCAR-8 ovarian = tested on: OVCAR-8 ovarian
A498 renal = tested on: A498 renal
IGROV1 ovarian = tested on: IGROV1 ovarian
OVCAR-5 ovarian = tested on: OVCAR-5 ovarian
DMS 114 small cell lung = tested on: DMS 114 small cell lung

| Compound | TGI (SNB-19 CNS) [µM] | TGI (U251 CNS) [µM] | TGI (SW-620 colon) [µM] | TGI (UACC-257 melanoma) [µM] | TGI (ACHN renal) [µM] | TGI (OVCAR-8 ovarian) [µM] | TGI (A498 renal) [µM] | TGI (IGROV1 ovarian) [µM] | TGI (OVCAR-5 ovarian) [µM] | TGI (DMS 114 small cell lung) [µM] | GI50 (SNB-19 CNS) [µM] | GI50 (U251 CNS) [µM] | GI50 (SW-620 colon) [µM] | GI50 (UACC-257 melanoma) [µM] | GI50 (ACHN renal) [µM] | GI50 (OVCAR-8 ovarian) [µM] | GI50 (A498 renal) [µM] | GI50 (IGROV1 ovarian) [µM] | GI50 (OVCAR-5 ovarian) [µM] |
| --- | --- | --- | --- | --- | --- | --- | --- | --- | --- | --- | --- | --- | --- | --- | --- | --- | --- | --- | --- |
| CCOC(=O)Cn1c(=O)c(C)cn(COCCO)c1=O | > 100 | > 100 | > 100 | > 100 | > 100 | > 100 | > 100 | > 100 | > 100 |  |  |  |  |  |  |  |  |  |  |
| COC(=O)C1c2cc3c(c(O)c2C(O)CC1(C)O)C(=O)c1c(O)cc2c(c1C3=O)OC1OC2(C)C(O)C(N(C)C)C1O (configuration not stated) | > 100 |  |  |  |  | > 100 |  | > 39.7 |  | > 100 |  |  |  |  |  |  |  |  |  |
| CCOC(C)OC1CC(n2cc(C)c(=O)[nH]c2=O)OC1CO (configuration not stated) | > 100 | > 100 | > 100 | > 100 | > 100 | > 100 | > 100 | > 100 | > 100 | > 100 |  |  |  |  |  |  |  |  |  |
| CN/N=C(\C(=O)Nc1ccc(C)c(C)c1)C(C(=O)OC)c1nc2ccc([N+](=O)[O-])cc2[nH]c1=O (configuration not stated) | > 100 | > 100 | > 100 | > 100 | > 100 | > 100 | > 100 | > 100 | > 100 | > 100 |  |  |  |  |  |  |  |  |  |
| COc1ccc(C2=NC(c3ccc(Cl)cc3)C(c3ccc(Cl)cc3)N2C(=O)N2CCNC(=O)C2)c(OC(C)C)c1 (configuration not stated) | 4.91 | 3.57 | 6.12 | 4.84 | 3.33 | 6.14 | 3.55 | 3.29 | 5.54 |  | 2.08 | 1.84 | 2.41 | 2.64 | 1.89 | 2.46 | 1.89 | 1.76 | 2.23 |
| CCN(CC)CCO[Si](OCCN(CC)CC)(OCCN(CC)CC)OCCN(CC)CC | > 100 | > 100 | > 100 | > 100 |  | > 100 |  | > 100 | > 100 | > 100 |  |  |  |  |  |  |  |  |  |
| O=C(CCC1CCCCN1)Nc1ccc2c(c1)C(=O)c1ccc(NC(=O)CCN3CCCCC3)cc1C2=O (configuration not stated) |  | 23.8 |  | 2.94 |  | 9.73 | 16.2 | 31.2 | 11.2 | 2.97 |  |  |  |  |  |  |  |  |  |
| C(=C/c1nc2ccccc2o1)/c1ccc2c(c1)OCO2 | 38.6 | 42.1 | > 100 | > 100 |  | > 100 | 56.8 | > 83 | > 100 | > 100 |  |  |  |  |  |  |  |  |  |
| C=C(C)[C@@H]1CC[C@]2(CO)CC[C@]3(C)[C@H](CC[C@@H]4[C@@]5(C)CC[C@H](NCO)C(C)(C)[C@@H]5CC[C@]43C)[C@@H]12 | 1.82 |  | 1.96 | 1.91 | 1.65 |  | 1.69 | 1.68 | 1.56 |  | 0.95 |  | 0.948 | 0.935 | 0.943 |  | 0.802 | 0.899 | 0.85 |
| CC1OC(=O)C(C(C)C)NC(=O)C(C(C)C)OC(=O)C(C(C)C)NC(=O)C(C)OC(=O)C(C(C)C)NC(=O)C(C(C)C)OC(=O)C(C(C)C)NC(=O)C(C)OC(=O)C(C(C)C)NC(=O)C(C(C)C)OC(=O)C(C(C)C)NC1=O (configuration not stated) | 1.25 | 1.05 | 4.85 | 0.145 | < 0.0001 | 3.46 | 0.0383 | 5.34 |  | 0.0191 | < 0.0001 | < 0.0001 | < 0.0001 |  |  | < 0.0001 |  |  |  |
